Source: publication PMC11054433, “Nature-Inspired 1-Phenylpyrrolo[2,1-a]isoquinoline Scaffold for Novel Antiproliferative Agents Circumventing P-Glycoprotein-Dependent Multidrug Resistance” (Pharmaceuticals, 2024)
Values joined by “and” are separate entries in the source; they are usually repeats but may differ in a detail not shown here. Equal values may be shown once. Read-outs that look alike come from different tables or passages of the source.

Legend:
[1] = test system: HeLa (adenocarcinoma of the cervix uterus) cells; test: MTT antiproliferative (cytotoxicity) assay, HeLa cells; type: cell-based, Human; settings: Homo sapiens, HeLa, 72 h, mean (SD), triplicate, n.a. = not active at 100 μM, >100 = less than 60% inhibition at 100 μM
Description: (§1) The newly synthesized 1-Ph-DHPIQs, along with the previously reported derivatives 4a, 4c, 6a and 6c, with camptothecin and doxorubicin as positive controls, were tested at the maximum concentration of 100 μM for their antiproliferative activity, using an MTT assay on RD, HCT116, HeLa and A549 cancer cell lines. Compounds showing more than 50% inhibition were tested at lower scalar concentrations, and IC50 values were calculated by interpolation of the dose-response curves (Table 1). […]
(§2) The antiproliferative activity of the newly synthesized compounds, along with some previously reported analogs, and camptothecin and doxorubicin as positive controls was determined by the MTT (3-(4,5-dimethylthiazol-2-yl)-2,5-diphenyltetrazolium bromide) assay. The cells were seeded at a concentration of 1 × 10 ^4 cells/200 μL in a 96-well plate and cultured at 37 °C in a humidified atmosphere with 5% CO2. After 24 h of incubation, scalar concentrations of each test compound (100 to 1.56 μmol·L^−1) were added to the cancer cell culture and the cells were then cultured under the same conditions for 72 hr. Each concentration of the test compound was assayed in triplicate. […] Wells with the 0.1% v/v DMSO were used as controls. After incubation, 20 μL of MTT (5 mg·mL^−1) was added to each well and the plates were incubated for a further 2 h. Next, media were removed from the plates, and 100 μL of DMSO was added to each well to dissolve the formed formazan crystals. Using a flatbed analyzer (Victor^3, PerkinElmer, Waltham, MA, USA), the optical density was determined at 530 nm, minus the measured background absorbance at 620 nm. The concentration value, which causes 50% inhibition of cell population growth (IC50), was determined from the dose-dependent curves using the OriginPro 9.0 software.

[2] = test system: HCT116 (colon cancer) cells; test: MTT antiproliferative (cytotoxicity) assay, HCT116 cells; type: cell-based, Human; settings: Homo sapiens, HCT-116, 72 h, mean (SD), triplicate, n.a. = not active at 100 μM, >100 = less than 60% inhibition at 100 μM
Description: as §1, §2

[3] = test system: RD (rhabdomyosarcoma) cells; test: MTT antiproliferative (cytotoxicity) assay, RD cells; type: cell-based, Human; settings: Homo sapiens, Rhabdomyosarcoma cell, 72 h, mean (SD), triplicate, n.a. = not active at 100 μM, >100 = less than 60% inhibition at 100 μM
Description: as §1, §2

[4] = Lipophilicity by RP-HPLC (polycratic capacity factor); type: physicochemical; settings: capacity factor extrapolated to 100% aqueous mobile phase, aqueous component pH 4.7
Description: To quantitate the effect of hydrophobicity on the biological activity of the examined compounds, a relative lipophilicity scale was determined by RP-HPLC [20]. The polycratic capacity factor (log k′w) for each compound in Table 2 was experimentally determined (details in the experimental section) and compared with 1-octanol–water partition coefficient calculated (Clog P) with ACDLabs software (release 10.0; Advanced Chemistry Development, Inc., Toronto, ON, Canada). Log k′w values are quite well correlated with Clog Ps for the whole series (r^2 = 0.791). However, omitting from the regression the two Mannich bases 8b and 8c, which, due to their basicity (pKas about 6.9, estimated by ACDLabs software), should be predominantly in the protonated forms at pH 4.7 (i.e., the pH of the aqueous component of the mobile phase in RP-HPLC), the correlation slightly improves (r^2 = 0.859), providing a linear equation with a slope equal to +0.8 and an intercept of about −0.1.
The lipophilicity parameters were determined by an RP-HPLC technique. Methanol solution of DHPIQ derivatives (1 mg/mL) were analyzed by an Agilent 1260 infinite HPLC system (Agilent Technologies, Milan, Italy) equipped with a diode array detector (DAD), and a Phenomenex, Kinetex 5 μ, C18, 100 Å (150 × 4.6 mm), and eluted with different percentage of mobile phase composition (0.05 increments of MeOH volume fractions in 20 mM ammonium formate buffer at pH 4.7 or water 0.1% v/v TFA, with φ ranging between 0.85 and 0.30). The chromatographic measurements were carried out at 25 ± 1 °C at a flow rate of 1 mL·min^−1 and at 265, 290, 320 nm wavelengths. The log of capacity factors (log k′ = log (tR − t0)/t0) of each compound at different mobile phase compositions was calculated; tR represents the retention time of the solute and t0 is the column dead time, measured as the elution time of a KNO3 solution in MeOH. For each compound, the log k′ values increased linearly with decreasing MeOH volume fraction. The logarithms of the capacity factor extrapolated to 100% aqueous mobile phase (log k′w) were calculated from the linear regressions on at least five data points (r^2 > 0.9984).

[5] = test system: A549 (lung adenocarcinoma) cells; test: MTT antiproliferative (cytotoxicity) assay, A549 cells; type: cell-based, Human; settings: Homo sapiens, A549, 72 h, mean (SD), triplicate, n.a. = not active at 100 μM, >100 = less than 60% inhibition at 100 μM
Description: The antiproliferative activity of the newly synthesized compounds, along with some previously reported analogs, and camptothecin and doxorubicin as positive controls was determined by the MTT (3-(4,5-dimethylthiazol-2-yl)-2,5-diphenyltetrazolium bromide) assay. […] Each concentration of the test compound was assayed in triplicate. […] Wells with the 0.1% v/v DMSO were used as controls. After incubation, 20 μL of MTT (5 mg·mL^−1) was added to each well and the plates were incubated for a further 2 h. Next, media were removed from the plates, and 100 μL of DMSO was added to each well to dissolve the formed formazan crystals. Using a flatbed analyzer (Victor^3, PerkinElmer, Waltham, MA, USA), the optical density was determined at 530 nm, minus the measured background absorbance at 620 nm.

[6] = target: T1, human serum albumin (HSA) (Homo sapiens, UniProt P02768); test: Binding affinity to immobilized HSA by surface plasmon resonance (SPR)
Description: (§3) By plotting the response at equilibrium, the dissociation constant (KD) value was determined for each test compound.
(§4) Fatty acid-free HSA (A3782 from Merck, KGaA Sigma-Aldrich, Darmstadt, Germany) was applied to functionalize the surface of a COOH V sensor chip (Pall FortèBio, Fremont Boulevard, CA, USA), by using amine coupling (EDC/NHS). HSA aqueous stock solution was diluted at the final concentration of 50 μg·mL^−1 in 10 mM sodium acetate buffer (pH 5.0), and immobilization in peripheral flow cells 1 and 3 (unmodified dextran surface in middle flow cell 2 used as a reference) at a final apparent level of about 5000 RU was achieved by applying the following protocol: injection of EDC/NHS (freshly mixed 0.4 M EDC and 0.1 M NHS) 1:1 v/v at a flow of 25 μL·min^−1 for 4 min; injection of HSA solution at a flow of 25 μL·min^−1 for 8 min; capping on unreacted activated carboxyl groups by injection of 1 M ethanolamine solution (pH 9) at a flow of 25 μL·min^−1 for 8 min. The functionalized surface was then treated with repeated injection of 4 M NaCl, as a regenerating reagent, and conditioned overnight prior to use with pH 7.4 PBS (10 mM NaH2PO4 and 150 mM NaCl) as a running buffer. Each cycle (without the need of regeneration) for binding assay to HSA was carried out in PBS/4% v/v DMSO and consisted of a run buffer injection (60 s), injection of analyte single concentration for 120 s (ranging from 1 to 200 μM) at a flow 20 μL·min^−1, and a dissociation phase for 150 s (flow 20 μL·min^−1). Each measurement was performed at least in triplicate and analyzed by using QDAT software, vers 2.2.0.7 (non-linear regression analysis of 1:1 stoichiometric reversible binding model), and double referencing.

[7] = Kinetic solubility in PBS by RP-HPLC; type: physicochemical; settings: phosphate buffered saline, 25 °C, kinetic from dmso stock
Description: Sample solution at 200 μM in PBS (50 mM, pH 7.4, KCl 0.15 M) from a 10 mM stock solution in DMSO was incubated at room temperature (25 ± 1 °C) for 2 h, following shaking of the suspension on an orbital shaker at 250 rpm, and then separated by […]. Immediately after the filtration step, 100 µL of filtrate was transferred into 100 µL of 1:1 (v/v) mixture of DMSO and PBS (50 mM, pH 7.4, KCl 0.15 M), to avoid precipitation from the saturated solution and analyzed by HPLC. The peak area was plotted against a calibration curve of the tested compound in MeOH [21]. Analytical conditions were as follows. Mobile Phase: MeOH/ammonium formate 20 mM pH 4.7 (70:30, 75:25); MeOH 0.1% TFA/H2O 0.1% TFA (70:30, 60:40); stationary phase: Phenomenex, Kinetex 5 μ, C18, 100 Å (150 × 4.6 mm); flux: 1 mL/min; injection: 10 μL, 265, 290, 320 nm wavelength. HPLC analyses were performed on an Agilent HPLC 1260 Infinity Series Integrated System (Agilent Technologies, Milan, Italy).

[8] = target: P-glycoprotein (P-gp) (Homo sapiens, UniProt P08183); test: Calcein-AM transport inhibition in MDCK-MDR1 cells overexpressing P-gp; settings: for IC50: calcein-AM, mean (SD), at least two independent experiments in triplicate; for P-gp/MRP1 selectivity (toward P-gp): ratio of MRP1 and P-gp inhibition potency
Description: (§5) The P-gp inhibitory potency of eight DHPIQs was evaluated by measuring the transport inhibition of calcein-AM, a profluorescent P-gp substrate, in the MDCK-MDR1 cell line overexpressing P-gp. Moreover, to evaluate the MRP1 inhibitor activity, the same compounds were screened in MDCK-MRP1 cells overexpressing MRP1.
(§6) According to previously described assays [9], MDCK-MDR1 and MDCK-MRP1 cell lines (50,000 cells per well) were seeded into a black CulturePlate 96-well plate with 100 μL medium and allowed to become confluent overnight. […] Saline buffer (100 μL) was added to each well, and the plate was read by a PerkinElmer Victor3 spectrofluorimeter at excitation and emission wavelengths of 485 nm and 535 nm, respectively. In these experimental conditions, calcein cell accumulation in the absence and in the presence of the test compound was evaluated, and the fluorescence basal level was estimated by untreated cells. In the treated wells, the increase of fluorescence with respect to basal level was measured. IC50 values were determined by interpolating the curve of fluorescence increase percentage versus log [conc.].

[9] = target: multidrug-resistance-associated protein-1 (MRP1) (Homo sapiens, UniProt P33527); test: Calcein-AM transport inhibition in MDCK-MRP1 cells overexpressing MRP1
Description: as §5, §6

[10] = Hydrolytic stability monitored by RP-HPLC; type: physicochemical; settings: 0.15 M KCl; for Hydrolytic stability at pH 2: 0.01 M HClaq, pH 2, 25 °C; for Hydrolytic stability at pH 7.4: 50 mM PBS, pH 7.4, 25 °C
Source text: In particular, the transformation of the DHPIQ-2-aldehyde via Mannich reaction (8b,c) opens the road to future developments of new water-soluble antiproliferative DHPIQ derivatives endowed with the ability to inhibit P-gp and reverse MDR.

[11] = target: T1, human serum albumin (HSA); settings: 10 μM, pH 7.4
Description: as §3, §4

[12] = aqueous buffer, PBS (50 mM, pH 7.4, 0.15 M KCl) at 25 ± 1 °C, read-out: S (solubility)

P-glycoprotein (P-gp), sequence (P08183 whole entry): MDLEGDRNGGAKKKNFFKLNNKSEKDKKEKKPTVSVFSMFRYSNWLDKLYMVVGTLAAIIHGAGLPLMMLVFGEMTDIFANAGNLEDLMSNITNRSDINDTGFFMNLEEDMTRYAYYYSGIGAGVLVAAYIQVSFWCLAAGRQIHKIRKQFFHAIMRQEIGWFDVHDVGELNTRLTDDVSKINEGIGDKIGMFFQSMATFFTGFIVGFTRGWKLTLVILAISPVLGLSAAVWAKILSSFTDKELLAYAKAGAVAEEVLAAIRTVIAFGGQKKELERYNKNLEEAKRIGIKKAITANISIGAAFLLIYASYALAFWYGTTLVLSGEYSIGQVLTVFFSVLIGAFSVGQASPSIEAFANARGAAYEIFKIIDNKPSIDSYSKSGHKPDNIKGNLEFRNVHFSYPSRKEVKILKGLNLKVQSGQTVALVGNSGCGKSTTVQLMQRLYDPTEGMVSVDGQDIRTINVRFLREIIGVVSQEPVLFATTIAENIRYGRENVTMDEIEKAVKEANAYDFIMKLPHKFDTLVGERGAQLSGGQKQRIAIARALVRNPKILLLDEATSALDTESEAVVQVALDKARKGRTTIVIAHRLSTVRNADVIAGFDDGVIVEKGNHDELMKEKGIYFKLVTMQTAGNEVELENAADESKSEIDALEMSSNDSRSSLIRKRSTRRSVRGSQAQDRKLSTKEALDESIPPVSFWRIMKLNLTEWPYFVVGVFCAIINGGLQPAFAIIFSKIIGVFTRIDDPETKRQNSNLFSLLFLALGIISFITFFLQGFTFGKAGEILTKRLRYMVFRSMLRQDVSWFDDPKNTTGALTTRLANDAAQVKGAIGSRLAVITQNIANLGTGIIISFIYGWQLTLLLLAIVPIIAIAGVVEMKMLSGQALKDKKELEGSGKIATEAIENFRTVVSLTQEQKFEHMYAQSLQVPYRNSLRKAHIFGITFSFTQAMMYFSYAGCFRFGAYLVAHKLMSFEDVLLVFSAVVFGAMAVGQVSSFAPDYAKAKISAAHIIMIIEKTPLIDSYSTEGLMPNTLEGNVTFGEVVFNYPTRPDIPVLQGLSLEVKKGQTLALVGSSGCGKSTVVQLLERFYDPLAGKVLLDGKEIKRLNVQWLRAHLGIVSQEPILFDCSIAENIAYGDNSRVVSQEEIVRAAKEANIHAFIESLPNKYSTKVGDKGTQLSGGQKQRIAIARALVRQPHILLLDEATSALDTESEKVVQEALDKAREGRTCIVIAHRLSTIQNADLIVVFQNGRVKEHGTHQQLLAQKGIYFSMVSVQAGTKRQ
multidrug-resistance-associated protein-1 (MRP1), sequence (P33527 whole entry): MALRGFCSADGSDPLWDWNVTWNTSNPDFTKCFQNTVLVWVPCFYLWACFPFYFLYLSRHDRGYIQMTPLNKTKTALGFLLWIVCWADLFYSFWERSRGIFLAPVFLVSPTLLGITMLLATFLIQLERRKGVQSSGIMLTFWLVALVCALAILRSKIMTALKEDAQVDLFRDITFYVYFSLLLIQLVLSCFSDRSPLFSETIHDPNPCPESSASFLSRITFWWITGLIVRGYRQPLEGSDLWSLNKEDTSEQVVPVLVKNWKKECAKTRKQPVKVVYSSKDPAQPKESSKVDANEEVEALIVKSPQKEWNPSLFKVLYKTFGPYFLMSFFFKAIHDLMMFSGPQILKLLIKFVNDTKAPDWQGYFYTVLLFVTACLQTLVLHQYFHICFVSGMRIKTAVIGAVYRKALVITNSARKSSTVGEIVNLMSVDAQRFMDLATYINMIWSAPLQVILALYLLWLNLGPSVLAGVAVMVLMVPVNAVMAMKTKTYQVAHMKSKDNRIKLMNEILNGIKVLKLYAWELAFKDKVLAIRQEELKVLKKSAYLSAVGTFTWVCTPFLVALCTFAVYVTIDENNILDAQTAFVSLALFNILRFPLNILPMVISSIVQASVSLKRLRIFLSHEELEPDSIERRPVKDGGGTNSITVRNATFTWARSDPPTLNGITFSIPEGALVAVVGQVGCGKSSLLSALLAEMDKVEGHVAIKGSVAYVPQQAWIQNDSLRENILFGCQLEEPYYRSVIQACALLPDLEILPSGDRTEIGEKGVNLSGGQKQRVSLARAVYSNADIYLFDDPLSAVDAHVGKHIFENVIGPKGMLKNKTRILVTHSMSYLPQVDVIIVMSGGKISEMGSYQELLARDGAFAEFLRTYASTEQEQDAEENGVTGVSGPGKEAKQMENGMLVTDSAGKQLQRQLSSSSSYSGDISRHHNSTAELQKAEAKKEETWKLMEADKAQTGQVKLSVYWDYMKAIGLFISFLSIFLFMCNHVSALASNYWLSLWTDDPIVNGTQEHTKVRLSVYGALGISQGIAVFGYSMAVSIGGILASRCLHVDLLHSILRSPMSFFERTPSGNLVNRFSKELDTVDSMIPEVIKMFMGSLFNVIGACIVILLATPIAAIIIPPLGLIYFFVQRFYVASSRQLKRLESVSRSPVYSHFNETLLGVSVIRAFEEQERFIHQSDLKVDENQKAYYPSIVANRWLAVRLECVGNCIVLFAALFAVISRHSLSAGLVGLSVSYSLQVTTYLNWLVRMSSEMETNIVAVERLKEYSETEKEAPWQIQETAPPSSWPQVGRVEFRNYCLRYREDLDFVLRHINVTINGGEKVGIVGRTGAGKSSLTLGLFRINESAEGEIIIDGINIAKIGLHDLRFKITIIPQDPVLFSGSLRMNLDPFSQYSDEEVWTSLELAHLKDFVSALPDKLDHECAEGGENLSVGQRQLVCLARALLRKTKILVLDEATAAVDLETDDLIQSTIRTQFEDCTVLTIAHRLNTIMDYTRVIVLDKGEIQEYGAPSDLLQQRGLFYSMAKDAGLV
T1 sequence (P02768 25-609): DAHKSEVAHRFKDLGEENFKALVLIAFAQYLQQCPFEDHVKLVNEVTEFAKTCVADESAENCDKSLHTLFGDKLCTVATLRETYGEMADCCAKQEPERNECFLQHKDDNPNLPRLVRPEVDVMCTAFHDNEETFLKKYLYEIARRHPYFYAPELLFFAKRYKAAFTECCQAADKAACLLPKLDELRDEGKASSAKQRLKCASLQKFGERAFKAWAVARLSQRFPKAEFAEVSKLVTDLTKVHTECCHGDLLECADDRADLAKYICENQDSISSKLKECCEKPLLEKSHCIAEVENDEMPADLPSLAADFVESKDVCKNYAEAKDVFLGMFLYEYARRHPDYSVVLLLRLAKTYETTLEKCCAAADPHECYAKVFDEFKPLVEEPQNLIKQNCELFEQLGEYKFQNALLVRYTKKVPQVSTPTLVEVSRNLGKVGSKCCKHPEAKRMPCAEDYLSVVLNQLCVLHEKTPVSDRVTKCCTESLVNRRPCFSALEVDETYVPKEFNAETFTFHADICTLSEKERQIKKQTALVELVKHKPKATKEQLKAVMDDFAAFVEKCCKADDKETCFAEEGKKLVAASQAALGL

SMILES | Log k′w [4] | Kd [6] [µM] | solubility at 2 h [7, 12] [µM] | IC50 ([8]; P-gp, IC50, MDCK-MDR1 cells) | IC50 [9] [µM] | melting point [°C] | IC50 ([8]; read-out: P-gp, IC50, MDCK-MDR1 cells) [µM] | P-gp/MRP1 selectivity (toward P-gp) [8] | Hydrolytic stability at pH 2 [10] | Hydrolytic stability at pH 7.4 [10] | solubility at 2 h ([7]; pH 7.4, aqueous buffer, ‘practically insoluble’ threshold of US and European Pharmacopoeia, read-out: Solubility category in buffered water solution at neutral pH) [µg/mL] | Predicted fraction bound to HSA [11] | IC50 [1] [µM] | IC50 [2] [µM] | IC50 [3] [µM] | IC50 [5] [µM]
COc1ccc(-c2c(C=O)cn3c2-c2cc(OC)c(OC)cc2CC3)cc1 [Compound 4b] | 3.39 | 1.95 | 19.8 | 4.48 µM | 6.42 | – | – | – | – | – | – | – | > 100 | > 100 | 95.2 | > 100
COc1cc2c(cc1OC)-c1c(-c3ccc(Cl)cc3)c(C(=O)O)cn1CC2 [Compound 5a, 1-(4-Chlorophenyl)-8,9-dimethoxy-5,6-dihydropyrrolo[2,1-a]isoquinoline-2-carboxylic acid] | – | – | – | – | – | 210 to 215 | – | – | – | – | – | – | > 100 | > 100 | > 100 | > 100
CCOc1ccc(-c2c(C(=O)O)cn3c2-c2cc(OCC)c(OCC)cc2CC3)cc1OCC [Compound 5c, 1-(3,4-Diethoxyphenyl)-8,9-diethoxy-5,6-dihydropyrrolo[2,1-a]isoquinoline-2-carboxylic acid] | – | 5.2 | 14.6 | < 0.5 µM and 0.35 µM | > 100 | – | – | more than two orders of magnitude | – | – | – | – | – | – | – | –
CC[C@@]1(O)C(=O)OCc2c1cc1n(c2=O)Cc2cc3ccccc3nc2-1 [Camptothecin, reference compound] | – | – | – | – | – | – | – | – | – | – | – | – | 0.33 | 12.3 | 16 | 3.32
COc1cc2c(cc1OC)-c1c(-c3ccc(Cl)cc3)c(C#N)cn1CC2 [Compound 6a] | 4.42 | 4.6 | 1.42 | 5.89 µM | 16.6 | – | – | – | – | – | – | – | > 100 | > 100 | > 100 | > 100
CCOc1ccc(-c2c(C#N)cn3c2-c2cc(OCC)c(OCC)cc2CC3)cc1OCC [Compound 6c] | 5.09 | 1.8 | 1.06 | < 0.5 µM and 0.39 µM | > 100 | – | – | more than two orders of magnitude | – | – | – | – | > 100 | > 100 | > 100 | > 100
CCOc1ccc(-c2c(C#N)c(C)n3c2-c2cc(OCC)c(OCC)cc2CC3)cc1OCC [Compound 6d, 1-(3,4-Diethoxyphenyl)-8,9-diethoxy-3-methyl-5,6-dihydropyrrolo[2,1-a]isoquinoline-2-carbonitrile] | – | – | – | – | – | – | – | – | – | – | – | – | > 100 | > 100 | > 100 | > 100
COc1cccc2c1C(=O)c1c(O)c3c(c(O)c1C2=O)C[C@@](O)(C(=O)CO)C[C@@H]3O[C@H]1C[C@H](N)[C@H](O)[C@H](C)O1 [Doxorubicin, reference compound] | – | – | – | – | – | – | – | – | – | – | – | – | 0.89 | 0.14 | 0.29 | 0.38

Now from value to compound, other results behind:

Log k′w [4] | Kd [6] [µM] | solubility at 2 h [7, 12] [µM] | IC50 ([8]; P-gp, IC50, MDCK-MDR1 cells) | IC50 [9] [µM] | melting point [°C] | IC50 ([8]; read-out: P-gp, IC50, MDCK-MDR1 cells) [µM] | P-gp/MRP1 selectivity (toward P-gp) [8] | Hydrolytic stability at pH 2 [10] | Hydrolytic stability at pH 7.4 [10] | solubility at 2 h ([7]; pH 7.4, aqueous buffer, ‘practically insoluble’ threshold of US and European Pharmacopoeia, read-out: Solubility category in buffered water solution at neutral pH) [µg/mL] | Predicted fraction bound to HSA [11] | SMILES | IC50 [1] [µM] | IC50 [2] [µM] | IC50 [3] [µM] | IC50 [5] [µM]
– | – | – | – | – | – | 1.2 | – | – | – | – | – | COc1cc2c(cc1OC)CN(CCC=C1CCCc3c(OC)cccc31)CC2 [MC18, reference compound] | – | – | – | –
– | – | – | – | – | 271 to 273 | – | – | – | – | – | – | CCOc1ccc(-c2c(C#N)c(-c3ccccc3)n3c2-c2cc(OCC)c(OCC)cc2CC3)cc1OCC [Compound 6e, 1-(3,4-Diethoxyphenyl)-8,9-diethoxy-3-phenyl-5,6-dihydropyrrolo [2,1-a]isoquinoline-2-carbonitrile] | – | – | > 100 | –
5.49 | 12.1 | 41.7 | < 0.5 µM and 0.32 µM | 3.23 | – | – | – | stable over 4 h | stable over 4 h | – | – | CCOC(=O)c1cn2c(c1-c1ccc(OCC)c(OCC)c1)-c1cc(OCC)c(OCC)cc1CC2 [Compound 7c, Ethyl 1-(3,4-Diethoxyphenyl)-8,9-diethoxy-5,6-dihydro pyrrolo[2,1-a]isoquinoline-2-carboxylate] | – | – | – | –
3.86 | 19.3 | 112 | < 0.5 µM and 0.36 µM | 1.8 | – | – | – | stable over 4 h | stable over 4 h | < 100 | less than 40% | COc1ccc(-c2c(CN3CCOCC3)cn3c2-c2cc(OC)c(OC)cc2CC3)cc1 [Compound 8b, 8,9-Dimethoxy-1-(4-methoxyphenyl)-2-(morpholin-4-ylmethyl)-5,6-dihydropyrrolo[2,1-a]isoquinoline] | 65.4 | 56.4 | 37.7 | 66
